# Measured values published in US20210393636A1, “TREATMENT OF CNS AND DEVELOPMENTAL DISORDERS USING HIGH DOSE 5-FORMYL-(6S)-TETRAHYDROFOLATE” (priority 2019, published 2021).
# How the values were obtained:
# [1] = Tissue distribution of folates 24 h after oral administration of folate forms (Example 2); format: in vivo, rats; conditions: 4 mg/kg oral, 24 h; for Total 5-MTHF + PGA in Brain: derived from cortex and cerebellum
# Procedure: (§1) This study evaluated the difference in folate absorption in non-pregnant rats, pregnant rats, pregnant rats injected with a control antibody, and pregnant rats injected with antibody to the folate receptor alpha. Eight (8) rats were assigned to each group for a total of thirty-two (32) rats. Two rats within each group were administered a single oral dose of PGA, 5-methyl-(6S)-THF, folinic acid or 5-formyl-(6S)-THF as a liquid solution and sacrificed at 24-hours to evaluate folate absorption patterns. The total amount of each form of folate administered to each rat was 4 mg/kg.
# Additional analyses were performed in various tissues of the pregnant and non-pregnant rats. For tissues other than serum, each tissue was collected, weighed and stored at −20 C. For the folate assay each tissue was suspended in 3 volumes of phosphate buffer containing 2% ascorbic acid pH 7.4 and homogenized using a polytron probe. An aliquot of this homogenate was diluted 10 fold in PO4 buffer PH 5.5 containing 0.2% ascorbic acid, in a glass tube, sealed and placed in a boiling water bath for 10 min. The tube was cooled to room temperature, precipitate removed by centrifugation and the clear supernatant assayed for folate. Brain concentrations were derived from cortex and cerebellum.
# [2] = Tissue distribution of folates 24 h after oral administration of folate forms to rat pups, with and without FR Ab (Example 3); format: in vivo; conditions: PND 21 rat pups, 4 mg/kg oral, 24 h
# Procedure: To determine tissue distribution of orally administered folate forms in young rat pups and study the effect of folate receptor antibodies on this distribution. PND 21 rat pups weighing about 50 g were administered folate forms orally at a dose of 4 mg/kg. Animals were euthanized after 24 h and tissues collected for analyzing total methylfolate in each tissue to provide a measure of normal distribution.
# [3] = Total folates in serum 24 h after oral administration of folate forms (Example 2); format: in vivo, rats; parameters: Total Folates in Serum (total 5-MTHF D- and L- plus folic acid): unit not given here; conditions: 4 mg/kg oral, 24 h
# Procedure: as §1
# Serum was withdrawn immediately before the rat was sacrificed. For extraction of folate from serum, an aliquot of the serum was diluted in 3 volumes of phosphate buffer pH 5.5, placed in a boiling water bath for 10 min, cooled, the protein precipitate separated by centrifugation and the clear supernatant was assayed for folate concentration.
# [4] = Folate absorption in serum after single high-dose oral administration of different folates (Example 1); conditions: serum, 4 mg/kg single oral dose; for 5-MTHF: D- and L-forms
# Procedure: For this study, 4 mg/kg folate was administered as a single dose to 250-300 g male Wistar rats. […] For each form of folate 4 time points of 30 min, 1 h, 2 h and 4 h were evaluated. For each time point 2 rats were used. The folate form dissolved in 0.5 ml buffered saline was administered orally using a blunt needle attached to a 1 ml syringe. The rats were euthanized by CO2 inhalation.
# Blood was drawn cardiac puncture, allowed to clot for 30 min, serum separated, diluted in equal volume of 4% ascorbate pH 7.2 and kept frozen at −20 C. Folate forms in the serum was determined by HPLC and the peaks were quantified by comparing to known standards as described below.
# Folate standards (5-MTHF, FA, THF and Formyl-THF) and 13C-labeled stable isotope internal standards (13C5-5-MTHF, 13C5-FA and 13C-Formyl-THF) were obtained from Schircks Laboratories (Switzerland). Formic acid, ascorbic acid and dithiothreitol (DTT) were obtained from Fluka and Optima LC-MS grade methanol from Fisher Scientific. Stock standards for each folate metabolite and internal standards were prepared as 1 mmol/L solutions in water containing 2 mg/mL ascorbic acid and stored at −80° C. Microtiter plates used for were purchased from NUNC.
# Liquid chromatography electrospray ionization mass spectrometry (LC-ESI-MS/MS) analysis of plasma 5-MTHF, FA, THF, Formyl-THF was performed on a Sciex 5500QTRAP mass spectrometer (Foster City, Calif., USA) coupled with a Shimadzu ultra-high pressure Nexera chromatograph system (Kyoto, Japan). The MS/MS experiments were performed under positive electrospray ionization (+ESI) with multiple-reaction monitoring (MRM) using a Turbolon Spray electrospray source operating at a voltage of 5.5 kV and desolvation temperature of 500° C. The calibration curve was prepared in water containing 2 mg/mL ascorbic acid over a range of 12.5-400 nmol/L for each folate analyte.
# Sample preparation involved combining 50 µl of blank, standard, control or sample with 10μ1 62.5 mM dithiothreitol, 20 mg/ml ascorbic acid and 2.5 μM 13C5-5-MTHF, 13C5-FA, 13C-Formyl-THF in 1.5 mL Eppendorf tubes, mixed by vortex and incubated for 10 minutes at room temperature in the dark. Next, samples were deproteinized with 5 volumes of methanol containing 2 mg/ml of ascorbic acid and vortexed and centrifuged at 14800 rpm for 10 minutes. Supernatant was loaded in a 96-well microtiter plate for analysis. The samples were analyzed following injection of 10 μL of extract on a Synergi Hydro 4μ 150×3 mm with a 4×2 mm SecurityGuard column (Phenomenex, Calif., USA) maintained at 40° C. (Phenomenex) and eluted in a gradient with buffer A (100% water with 0.1% formic acid) and buffer B (100% Methanol with 0.1% formic acid). The flow rate was 0.5 mL/min, with a gradient over a total run time of 6 min: 0.0-2.0 min, 0-100% B; 2.5 min, 100% B; 2.6-6.0 min, 0% B.
# Total analytical analysis, including column re-equilibration, was 6 minutes. Eluent flow from the column was diverted to waste at the beginning and end of each run and was only directed to the source for the period from 1.5-3.5 minutes. The LC-MS/MS data was acquired and processed using Analyst 1.5.2 software (Sciex).
# Values reported include both D- and L-forms.
# [5] = non-pregnant rats, without antibody
smiles,measurement,setting,value
"CN1c2c(nc(N)[nH]c2=O)NC[C@@H]1CNc1ccc(C(=O)N[C@@H](CCC(=O)O)C(=O)O)cc1 [5-methyl-(6S)-THF, 5-methyl-(6S)-tetrahydrofolate]",Total 5-MTHF + PGA in Cerebellum,[1]; [5],1.9
same,Total 5-MTHF + PGA in Cortex,[1]; [5],1.9
same,Total 5-MTHF + PGA in Kidney,[1]; [5],36.4
same,Total 5-MTHF + PGA in Liver,[1]; [5],75.4
same,Total 5-MTHF + PGA in Ovary,[1]; [5],7.2
same,Total 5-MTHF + PGA in Brain,[1]; [5],1.9
same,Total 5-MTHF + PGA in Embryo,"[1]; pregnant rats, + Control IgG",2.0 ng/mg
same,Total 5-MTHF + PGA in Kidney,"[1]; pregnant rats, + Control IgG",20.3 ng/mg
same,Total 5-MTHF + PGA in Liver,"[1]; pregnant rats, + Control IgG",148.5 ng/mg
same,Total 5-MTHF + PGA in Ovary,"[1]; pregnant rats, + Control IgG",14.9 ng/mg
same,Total 5-MTHF + PGA in Placenta,"[1]; pregnant rats, + Control IgG",2.3 ng/mg
same,Total 5-MTHF + PGA in Brain,"[1]; pregnant rats, + Control IgG",3.2 ng/mg
same,Total 5-MTHF + PGA in Embryo,"[1]; pregnant rats, + FRAb",1.9 ng/mg
same,Total 5-MTHF + PGA in Kidney,"[1]; pregnant rats, + FRAb",64.9 ng/mg
same,Total 5-MTHF + PGA in Liver,"[1]; pregnant rats, + FRAb",148.0 ng/mg
same,Total 5-MTHF + PGA in Ovary,"[1]; pregnant rats, + FRAb",27.0 ng/mg
same,Total 5-MTHF + PGA in Placenta,"[1]; pregnant rats, + FRAb",2.1 ng/mg
same,Total 5-MTHF + PGA in Brain,"[1]; pregnant rats, + FRAb",3.7 ng/mg
same,Total 5-MTHF + PGA in Embryo,"[1]; pregnant rats, w/o IgG",4.6 ng/mg
same,Total 5-MTHF + PGA in Kidney,"[1]; pregnant rats, w/o IgG",25.5 ng/mg
same,Total 5-MTHF + PGA in Liver,"[1]; pregnant rats, w/o IgG",58.6 ng/mg
same,Total 5-MTHF + PGA in Ovary,"[1]; pregnant rats, w/o IgG",6.6 ng/mg
same,Total 5-MTHF + PGA in Placenta,"[1]; pregnant rats, w/o IgG",6.4 ng/mg
same,Total 5-MTHF + PGA in Brain,"[1]; pregnant rats, w/o IgG",2.4 ng/mg
same,"Folate (mean), Cerebellum",[2]; + FRAb (100 ug IP 24 h prior),60.7 ng/mg
same,"Folate (mean), Cerebrum",[2]; + FRAb (100 ug IP 24 h prior),3.8 ng/mg
same,"Folate (mean), Kidney",[2]; + FRAb (100 ug IP 24 h prior),116.4 ng/mg
same,"Folate (mean), Liver",[2]; + FRAb (100 ug IP 24 h prior),250.34 ng/mg
same,"Folate (mean), Cerebellum",[2]; no FRAb,26.1 ng/mg
same,"Folate (mean), Cerebrum",[2]; no FRAb,4.3 ng/mg
same,"Folate (mean), Kidney",[2]; no FRAb,86.6 ng/mg
same,"Folate (mean), Liver",[2]; no FRAb,158.5 ng/mg
same,Total Folates in Serum (total 5-MTHF D- and L- plus folic acid),[3]; Non-pregnant rats,60.0
same,Total Folates in Serum (total 5-MTHF D- and L- plus folic acid),"[3]; pregnant rats, Control Ab + Form",143.3
same,Total Folates in Serum (total 5-MTHF D- and L- plus folic acid),"[3]; pregnant rats, FRAb + Form",190.9
same,Total Folates in Serum (total 5-MTHF D- and L- plus folic acid),"[3]; pregnant rats, Form Only",85.5
same,THF,[4]; 0.5 hr,4.4 ng/mL
same,Total Uptake,[4]; 0.5 hr,188.5 ng/mL
same,5-MTHF,[4]; 0.5 hr,184.1 ng/mL
same,THF,[4]; 1 hr,9.0 ng/mL
same,Total Uptake,[4]; 1 hr,223.8 ng/mL
same,5-MTHF,[4]; 1 hr,214.8 ng/mL
same,THF,[4]; 2 hr,8.7 ng/mL
same,Total Uptake,[4]; 2 hr,258.4 ng/mL
same,5-MTHF,[4]; 2 hr,249.7 ng/mL
same,5-FoTHF,[4]; 4 hr,5.1 ng/mL
same,THF,[4]; 4 hr,19.6 ng/mL
same,Total Uptake,[4]; 4 hr,216.2 ng/mL
same,5-MTHF,[4]; 4 hr,191.4 ng/mL
